From the supplement of paper PMC11061612

Assays:
Assay in all cases: Bliss excess, mean over the matrix (fraction); higher = more synergy
[1] = tested on: MOLT-16 (T-Lymphoblastic Leukemia)
Method in brief: (§1)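 Bliss excess equals the observed combination effect minus the expected value EA + EB − EA·EB, where EA and EB are the effects of each agent alone. Combination Emax is the second-highest inhibition within the matrix. Inhibition was scaled from CellTiter-Glo 2.0 luminescence, with 0 set by vehicle wells and 1 by blank wells, after 72 hours of two-drug dosing of cells plated in 1536-well plates.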

[2] = tested on: KARPAS-45 (T-Lymphoblastic Leukemia)
Method in brief: as §1

[3] = tested on: HL-60 (Acute Myeloid Leukemia)
Method in brief: as §1

[4] = tested on: DiFi (Colorectal Carcinoma)
Method in brief: as §1

[5] = tested on: P12-ICHIKAWA (T-Lymphoblastic Leukemia)
Method in brief: as §1

[6] = tested on: EVSA-T (Breast Carcinoma)
Method in brief: as §1

[7] = tested on: GR-ST (B-Lymphoblastic Leukemia)
Method in brief: as §1

[8] = tested on: K-562 (Chronic Myelogenous Leukemia)
Method in brief: as §1

[9] = tested on: NCI-H1792 (Lung Adenocarcinoma)
Method in brief: as §1

[10] = tested on: KM12 (Colorectal Carcinoma)
Method in brief: as §1

TC-71 (Ewing's Sarcoma) = tested on: TC-71 (Ewing's Sarcoma)
Method in brief: as §1

[11] = tested on: KYSE-180 (Esophageal Squamous Cell Carcinoma)
Method in brief: as §1

WIL2-NS (Non-Cancerous) = tested on: WIL2-NS (Non-Cancerous)
Method in brief: as §1

[12] = tested on: MKN28 (Gastric Carcinoma)
Method in brief: as §1

[13] = tested on: SW1417 (Colorectal Carcinoma)
Method in brief: as §1

[14] = tested on: COLO-678 (Colorectal Carcinoma)
Method in brief: as §1

[15] = tested on: TOV-112D (Ovarian Carcinoma)
Method in brief: as §1

[16] = tested on: BFTC-905 (Bladder Carcinoma)
Method in brief: as §1

[17] = tested on: PANC-08-13 (Pancreatic Carcinoma)
Method in brief: as §1

CHP-212 (Neuroblastoma) = tested on: CHP-212 (Neuroblastoma)
Method in brief: as §1

NC1(C(=O)N[C@@H](CCO)c2ccc(Cl)cc2)CCN(c2ncnc3[nH]ccc23)CC1 [Capivasertib] + C[C@@H]1COCCN1C2=NC(=NC(=C2)C3(CC3)[S@](=N)(=O)C)C4=C5C=CNC5=NC=C4 [AZD6738] (first compound max 10 µM, 7x7, partner max 10 µM)
Bliss excess [1]: -0.0161 | Bliss excess [2]: -0.0238 | Bliss excess [3]: -0.04 | Bliss excess [4]: -0.122 | Bliss excess [5]: 0.0043 | Bliss excess [6]: 0.0185 | Bliss excess [7]: -0.035 | Bliss excess [8]: -0.0383 | Bliss excess [9]: -0.0208 | Bliss excess [10]: 0.0297 | Bliss excess (TC-71 (Ewing's Sarcoma)): 0.0295 | Bliss excess [11]: -0.0866 | Bliss excess (WIL2-NS (Non-Cancerous)): -0.0529 | Bliss excess [12]: -0.0459 | Bliss excess [13]: -0.0282 | Bliss excess [14]: -0.051 | Bliss excess [15]: -0.0632 | Bliss excess [16]: -0.0391 | Bliss excess [17]: 0.0128 | Bliss excess (CHP-212 (Neuroblastoma)): -0.0156

C=CCn1c(=O)c2cnc(Nc3ccc(N4CCN(C)CC4)cc3)nc2n1-c1cccc(C(C)(C)O)n1 [AZD1775] + C1CN(CCC1(C(=O)N[C@@H](CCO)C2=CC=C(C=C2)Cl)N)C3=NC=NC4=C3C=CN4 [Capivasertib] (first compound max 3 µM, partner max 3 µM)
Bliss excess [1]: 0.0568 | Bliss excess [2]: -0.0046 | Bliss excess [3]: 0.0265 | Bliss excess [4]: 0.0272 | Bliss excess [5]: 0.0076 | Bliss excess [6]: 0.129 | Bliss excess [7]: -0.0771 | Bliss excess [8]: -0.0516 | Bliss excess [9]: 0.0053 | Bliss excess [10]: -0.0162 | Bliss excess (TC-71 (Ewing's Sarcoma)): 0.0131 | Bliss excess [11]: -0.0066 | Bliss excess (WIL2-NS (Non-Cancerous)): -0.0675 | Bliss excess [12]: -0.0219 | Bliss excess [13]: -0.0368 | Bliss excess [14]: -0.0893 | Bliss excess [15]: 0.028 | Bliss excess [16]: -0.0499 | Bliss excess [17]: -0.0493 | Bliss excess (CHP-212 (Neuroblastoma)): -0.077

CC(=O)Nc1cccc(-n2c(=O)n(C3CC3)c(=O)c3c(Nc4ccc(I)cc4F)n(C)c(=O)c(C)c32)c1 [Trametinib] + Cc1nc(-c2cn3c(n2)-c2ccc(-c4cnn(C(C)(C)C(N)=O)c4)cc2OCC3)n(C(C)C)n1 [Taselisib] (first compound max 1 µM, 7x7, partner max 10 µM)
Bliss excess [1]: 0.006 | Bliss excess [2]: 0.112 | Bliss excess [3]: 0.228 | Bliss excess [4]: 0.107 | Bliss excess [5]: 0.267 | Bliss excess [6]: -0.0335 | Bliss excess [7]: -0.0059 | Bliss excess [8]: 0.151 | Bliss excess [9]: 0.109 | Bliss excess [10]: 0.0284 | Bliss excess (TC-71 (Ewing's Sarcoma)): 0.136 | Bliss excess [11]: 0.0886 | Bliss excess (WIL2-NS (Non-Cancerous)): 0.174 | Bliss excess [12]: 0.0966 | Bliss excess [13]: -0.0045 | Bliss excess [14]: -0.0114 | Bliss excess [15]: 0.176 | Bliss excess [16]: 0.167 | Bliss excess [17]: 0.132 | Bliss excess (CHP-212 (Neuroblastoma)): 0.0363

NC1(C(=O)N[C@@H](CCO)c2ccc(Cl)cc2)CCN(c2ncnc3[nH]ccc23)CC1 [Capivasertib] + CC(=O)c1c(C)c2cnc(Nc3ccc(N4CCNCC4)cn3)nc2n(C2CCCC2)c1=O [Palbociclib] (first compound max 10 µM, 7x7, partner max 10 µM)
Bliss excess [1]: -0.0011 | Bliss excess [2]: 0.0327 | Bliss excess [3]: -0.0406 | Bliss excess [4]: -0.0394 | Bliss excess [5]: -0.0096 | Bliss excess [6]: 0.0168 | Bliss excess [7]: -0.0067 | Bliss excess [8]: 0.0122 | Bliss excess [9]: 0.0419 | Bliss excess [10]: 0.0176 | Bliss excess (TC-71 (Ewing's Sarcoma)): 0.0341 | Bliss excess [11]: 0.0645 | Bliss excess (WIL2-NS (Non-Cancerous)): -0.0049 | Bliss excess [12]: -0.0459 | Bliss excess [13]: 0.0067 | Bliss excess [14]: -0.0295 | Bliss excess [15]: 0.0029 | Bliss excess [16]: 0.0048 | Bliss excess [17]: -0.0151 | Bliss excess (CHP-212 (Neuroblastoma)): 0.0311

Cc1c2c(nn1C)CSCc1cc(n(C)n1)CSc1cc(c3ccccc3c1)OCCCc1c(C(=O)O)n(C)c3c-2c(Cl)ccc13 [AZD5991] + CN(C)CCCOc1ccc(-c2ccc3ncc4c(c3c2)n(C2CCOCC2)c(=O)n4C)cn1 [AZD0156] (first compound max 1 µM, 7x7, partner max 1 µM)
Bliss excess [1]: -0.0302 | Bliss excess [2]: -0.0403 | Bliss excess [3]: 0.006 | Bliss excess [4]: -0.0112 | Bliss excess [5]: 0.108 | Bliss excess [6]: -0.0304 | Bliss excess [7]: -0.112 | Bliss excess [8]: 0.0048 | Bliss excess [9]: 0.0004 | Bliss excess [10]: -0.0453 | Bliss excess (TC-71 (Ewing's Sarcoma)): -0.001 | Bliss excess [11]: 0.0286 | Bliss excess (WIL2-NS (Non-Cancerous)): -0.0099 | Bliss excess [12]: 0.0021 | Bliss excess [13]: 0.0308 | Bliss excess [14]: -0.0427 | Bliss excess [15]: -0.0265 | Bliss excess [16]: 0.0304 | Bliss excess [17]: -0.0158 | Bliss excess (CHP-212 (Neuroblastoma)): -0.0538

Cc1nc(Nc2ncc(C(=O)Nc3c(C)cccc3Cl)s2)cc(N2CCN(CCO)CC2)n1 [Dasatinib] + CC(=O)Nc1cccc(-n2c(=O)n(C3CC3)c(=O)c3c(Nc4ccc(I)cc4F)n(C)c(=O)c(C)c32)c1 [Trametinib] (first compound max 2 µM, 7x7, partner max 1 µM)
Bliss excess [1]: -0.0184 | Bliss excess [2]: 0.0017 | Bliss excess [3]: -0.159 | Bliss excess [4]: -0.0465 | Bliss excess [5]: 0.0326 | Bliss excess [6]: -0.0361 | Bliss excess [7]: 0.0189 | Bliss excess [8]: -0.0956 | Bliss excess [9]: 0.0422 | Bliss excess [10]: -0.108 | Bliss excess (TC-71 (Ewing's Sarcoma)): -0.0333 | Bliss excess [11]: -0.0424 | Bliss excess (WIL2-NS (Non-Cancerous)): 0.133 | Bliss excess [12]: 0.0027 | Bliss excess [13]: 0.131 | Bliss excess [14]: -0.0945 | Bliss excess [15]: 0.0773 | Bliss excess [16]: 0.0926 | Bliss excess [17]: 0.143 | Bliss excess (CHP-212 (Neuroblastoma)): 0.0235

CC1(C)CCC(CN2CCN(c3ccc(C(=O)NS(=O)(=O)c4ccc(NCC5CCOCC5)c([N+](=O)[O-])c4)c(Oc4cnc5[nH]ccc5c4)c3)CC2)=C(c2ccc(Cl)cc2)C1 [Venetoclax] + C=CCn1c(=O)c2cnc(Nc3ccc(N4CCN(C)CC4)cc3)nc2n1-c1cccc(C(C)(C)O)n1 [AZD1775] (first compound max 1 µM, partner max 1 µM)
Bliss excess [1]: 0.143 | Bliss excess [2]: -0.0002 | Bliss excess [3]: -0.0175 | Bliss excess [4]: -0.0222 | Bliss excess [5]: 0.0117 | Bliss excess [6]: 0.0075 | Bliss excess [7]: -0.0109 | Bliss excess [8]: 0.0486 | Bliss excess [9]: 0.0479 | Bliss excess [10]: -0.0538 | Bliss excess (TC-71 (Ewing's Sarcoma)): -0.0215 | Bliss excess [11]: 0.0264 | Bliss excess (WIL2-NS (Non-Cancerous)): 0.054 | Bliss excess [12]: -0.0029 | Bliss excess [13]: -0.0132 | Bliss excess [14]: -0.0371 | Bliss excess [15]: -0.0375 | Bliss excess [16]: 0.0078 | Bliss excess [17]: -0.0153 | Bliss excess (CHP-212 (Neuroblastoma)): -0.0497
